The text below walks through data of patent US11033539B2, “Compounds of formulas (VII), (VIII), (IX), (XI), (XII), (XIII), and (XIV) as muscarinic receptor 4(M4) antagonists for treating neurological diseases” (Neurocrine Biosciences, Inc., priority 2015, dated 2021).

The experiment deals with human M4 receptor (Homo sapiens (Human), UniProt P08173). Kind of experiment: Radioligand (tritiated N-methylscopolamine) binding assay, M4. To be noted: Ki against the M4 receptor; membranes from CHO cells expressing human M4; tritiated N-methylscopolamine 1.5 nM; read-out: Ki. In outline: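 Compounds were tested at twelve concentrations ranging from 10 μM to […] against 1.5 nM radioligand on CHO cell membranes expressing each subtype. Incubation lasts 90 min at 37 °C in HEPES-buffered saline with Mg2+ and EDTA, pH 7.4, and filtration then separates bound radioligand.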
Sequence of human M4 receptor (P08173 whole entry): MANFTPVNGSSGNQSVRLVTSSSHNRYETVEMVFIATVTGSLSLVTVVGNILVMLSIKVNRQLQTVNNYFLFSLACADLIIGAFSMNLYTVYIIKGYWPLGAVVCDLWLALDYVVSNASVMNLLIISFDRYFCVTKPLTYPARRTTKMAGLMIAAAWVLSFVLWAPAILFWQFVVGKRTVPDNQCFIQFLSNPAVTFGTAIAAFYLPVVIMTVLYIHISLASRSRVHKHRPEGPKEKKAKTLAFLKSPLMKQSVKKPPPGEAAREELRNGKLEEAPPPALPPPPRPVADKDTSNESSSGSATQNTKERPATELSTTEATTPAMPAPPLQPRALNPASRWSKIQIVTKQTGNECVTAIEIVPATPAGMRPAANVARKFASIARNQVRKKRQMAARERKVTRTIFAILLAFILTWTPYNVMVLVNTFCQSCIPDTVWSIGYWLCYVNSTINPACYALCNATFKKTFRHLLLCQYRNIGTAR

For the compound `O=C(NCCC1CCN(Cc2ccccc2)CC1)c1ccc(-c2ccc(O)cc2)cc1` [9-69, N-[2-(1-benzylpiperidin-4-yl)ethyl]-4-(4-hydroxyphenyl)benzamide], the Ki (commonly a measure of affinity in units of concentration, obtained from inhibition or displacement) is 100 to 1000 nM.

Regarding `Cc1nc(C(=O)NCCC2CCN(Cc3ccccc3)CC2)cn1-c1ccc(C#N)cn1` [9-74, N-[2-(1-benzylpiperidin-4-yl)ethyl]-1-(5-cyanopyridin-2-yl)-2-methyl-1H-imidazole-4-carboxamide], the inhibitory constant (Ki) fell in the range of 100 to 1000 nM.

On to `N#Cc1ccc(-n2cnc(C(=O)NCCC3CCN(Cc4ccccc4)CC3)c2)nc1` [9-75, N-[2-(1-benzylpiperidin-4-yl)ethyl]-1-(5-cyanopyridin-2-yl)-1H-imidazole-4-carboxamide], for which the inhibition constant Ki lay within 100 to 1000 nM.

Consider `O=C(NCCC1CCN(Cc2ccccc2)CC1)C1CCN(c2ccc(OC(F)(F)F)cn2)CC1` [10-1, N-[2-(1-benzylpiperidin-4-yl)ethyl]-1-[5-(trifluoromethoxy)pyridin-2-yl]piperidine-4-carboxamide], for which the Ki fell in the range of 10 to 100 nM.

As for `COc1ccc(N2CCC(C(=O)NCCC3CCN(Cc4ccccc4)CC3)CC2)cc1C#N` [10-2, N-[2-(1-benzylpiperidin-4-yl)ethyl]-1-(3-cyano-4-methoxyphenyl)piperidine-4-carboxamide], the Ki was in the range of 100 to 1000 nM.

On to `O=C(NCCC1CCN(Cc2ccccc2)CC1)C1CCN(c2ccccc2)CC1` [10-3, N-[2-(1-benzylpiperidin-4-yl)ethyl]-1-phenylpiperidine-4-carboxamide], for which the Ki lay in the range of 100 to 1000 nM.

`CC1(C(=O)NCCC2CCN(Cc3ccccc3)CC2)CCN(c2ccccc2OC(F)(F)F)CC1` [10-4, N-[2-(1-benzylpiperidin-4-yl)ethyl]-4-methyl-1-[2-(trifluoromethoxy)phenyl]piperidine-4-carboxamide]: the inhibition constant Ki lay in the range of 100 to 1000 nM.

As for `N#Cc1cncc(N2CCC(C(=O)NCCC3CCN(Cc4ccccc4)CC3)CC2)c1` [10-15, N-[2-(1-benzylpiperidin-4-yl)ethyl]-1-(5-cyanopyridin-3-yl)piperidine-4-carboxamide], the inhibition constant (Ki) lay in the range of 100 to 1000 nM.

As to `CC1CN(c2ccccc2OC(F)(F)F)CCC1C(=O)NCCC1CCN(Cc2ccccc2)CC1` (stereo not drawn) [10-16, N-[2-(1-benzylpiperidin-4-yl)ethyl]-3-methyl-1-[2-(trifluoromethoxy)phenyl]piperidine-4-carboxamide], the Ki fell in the range of 100 to 1000 nM.

Regarding `O=C(NCCC1CCN(Cc2ccccc2)CC1)C1(F)CCN(c2ccccc2OC(F)(F)F)CC1` [10-17, N-[2-(1-benzylpiperidin-4-yl)ethyl]-4-fluoro-1-[2-(trifluoromethoxy)phenyl]piperidine-4-carboxamide], the inhibition constant (Ki) was in the range of 100 to 1000 nM.

In the case of `O=C(NCCC1CCN(Cc2ccccc2)CC1)C1CCN(c2ccc(C(F)(F)F)cn2)CC1` [10-24, N-[2-(1-benzylpiperidin-4-yl)ethyl]-1-[5-(trifluoromethyl)pyridin-2-yl]piperidine-4-carboxamide], the Ki was in the range of 10 to 100 nM.

On to `CC1(C(=O)NCCC2CCN(Cc3ccccc3)CC2)CCN(c2cccc(OC(F)(F)F)c2)CC1` [10-25, N-[2-(1-benzylpiperidin-4-yl)ethyl]-4-methyl-1-[3-(trifluoromethoxy)phenyl]piperidine-4-carboxamide], for which the Ki fell in the range of 10 to 100 nM.

Take `O=C(CC1CCN(Cc2ccccc2)CC1)NCC1CCN(c2cccc(OC(F)(F)F)c2)CC1` [10-26, 2-(1-benzylpiperidin-4-yl)-N-({1-[3-(trifluoromethoxy)phenyl]piperidin-4-yl}methyl)acetamide]: the Ki is 100 to 1000 nM.

`O=C(NCCC1CCN(Cc2ccccc2)CC1)C1CCN(c2ccc(Cl)nc2)CC1` [10-27, N-[2-(1-benzylpiperidin-4-yl)ethyl]-1-(6-chloropyridin-3-yl)piperidine-4-carboxamide]: the inhibition constant Ki lay in the range of 100 to 1000 nM.

Take `COc1ccc(N2CCC(C(=O)NCCC3CCN(Cc4ccccc4)CC3)CC2)nc1` [10-28, N-[2-(1-benzylpiperidin-4-yl)ethyl]-1-(5-methoxypyridin-2-yl)piperidine-4-carboxamide]: the Ki is 100 to 1000 nM.

For `COc1cc(OC(F)(F)F)cc(N2CCC(C(=O)NCCC3CCN(Cc4ccccc4)CC3)CC2)c1` [10-29, N-[2-(1-benzylpiperidin-4-yl)ethyl]-1-[3-methoxy-5-(trifluoromethoxy)phenyl]piperidine-4-carboxamide], the Ki lay within 10 to 100 nM.

On to `O=C(NCCC1CCN(Cc2ccccc2)CC1)C1CCN(c2nccc(C(F)(F)F)n2)CC1` [10-30, N-[2-(1-benzylpiperidin-4-yl)ethyl]-1-[4-(trifluoromethyl)pyrimidin-2-yl]piperidine-4-carboxamide], for which the inhibition constant (Ki) was in the range of 10 to 100 nM.

Regarding `CC1(C(=O)NCCC2CCN(Cc3ccccc3)CC2)CCN(c2ccc(OC(F)(F)F)cc2)CC1` [10-31, N-[2-(1-benzylpiperidin-4-yl)ethyl]-4-methyl-1-[4-(trifluoromethoxy)phenyl]piperidine-4-carboxamide], the Ki was in the range of 10 to 100 nM.

For `O=C(NCCC1CCN(Cc2ccccc2)CC1)C1CCN(c2cc(C(F)(F)F)ccn2)CC1` [10-32, N-[2-(1-benzylpiperidin-4-yl)ethyl]-1-[4-(trifluoromethyl)pyridin-2-yl]piperidine-4-carboxamide], the Ki fell in the range of 10 to 100 nM.

With `COc1ccc(N2CCC(C(=O)NCCC3CCN(Cc4ccccc4)CC3)CC2)cc1OC(F)(F)F` [10-33, N-[2-(1-benzylpiperidin-4-yl)ethyl]-1-[4-methoxy-3-(trifluoromethoxy)phenyl]piperidine-4-carboxamide], the inhibition constant (Ki) fell in the range of 10 to 100 nM.

Take `O=C(NCCC1CCN(Cc2ccccc2)CC1)C1CCN(c2ccc(OC(F)(F)F)nc2)CC1` [10-34, N-[2-(1-benzylpiperidin-4-yl)ethyl]-1-[6-(trifluoromethoxy)pyridin-3-yl]piperidine-4-carboxamide]: the inhibition constant Ki was 10 to 100 nM.

`O=C(NCCC1CCN(Cc2ccccc2)CC1)C1CCN(c2ccc(F)cc2)CC1` [10-35, N-[2-(1-benzylpiperidin-4-yl)ethyl]-1-(4-fluorophenyl)piperidine-4-carboxamide]: the inhibition constant Ki lay within 10 to 100 nM.

As for `N#Cc1cc(N2CCC(O)(C(=O)NCCC3CCN(Cc4ccccc4)CC3)CC2)ccc1OC(F)(F)F` [10-36, N-[2-(1-benzylpiperidin-4-yl)ethyl]-1-[3-cyano-4-(trifluoromethoxy)phenyl]-4-hydroxypiperidine-4-carboxamide], the Ki is 10 to 100 nM.

As for `O=C(NCCC1CCN(Cc2ccccc2)CC1)C1CCN(c2ccc(OC(F)(F)F)cc2F)CC1` [10-37, N-[2-(1-benzylpiperidin-4-yl)ethyl]-1-[2-fluoro-4-(trifluoromethoxy)phenyl]piperidine-4-carboxamide], the inhibition constant Ki was 10 to 100 nM.

For the compound `COC1(C(=O)NCCC2CCN(Cc3ccccc3)CC2)CCN(c2ccc(OC(F)(F)F)cc2)CC1` [10-38, N-[2-(1-benzylpiperidin-4-yl)ethyl]-4-methoxy-1-[4-(trifluoromethoxy)phenyl]piperidine-4-carboxamide], the Ki lay within 10 to 100 nM.

`COc1ccc(N2CCC(C(=O)NCCC3CCN(Cc4ccccc4)CC3)CC2)cc1F` [10-39, N-[2-(1-benzylpiperidin-4-yl)ethyl]-1-(3-fluoro-4-methoxyphenyl)piperidine-4-carboxamide]: the inhibitory constant (Ki) was in the range of 10 to 100 nM.

Turning to `O=C(NCCC1CCN(Cc2ccccc2)CC1)C1(O)CCN(c2cc(F)c(F)c(F)c2)CC1` [10-40, N-[2-(1-benzylpiperidin-4-yl)ethyl]-4-hydroxy-1-(3,4,5-trifluorophenyl)piperidine-4-carboxamide], the inhibition constant Ki was 10 to 100 nM.
